# Assay results reported in patent US7767409B2, “Method for detection of substance bound to nuclear receptor” (Fujikura Kasei Co., Ltd., priority 2005, dated 2010).
# Key:
# Type in all cases: biochemical
# [1] = target: T1, human estrogen receptor β-GST fusion protein (ER-β) (Homo sapiens, UniProt Q92731); test: Assay of ligand using coactivator SRC1-bound plate, ER-β; details: HRP-labeled anti-GST antibody, 450 nm, FIG. 6
# T1 construct: made in house; host or cells: Escherichia coli BL21
# [2] = target: T2, human liver X receptor α-GST fusion protein (LXR-α) (Homo sapiens, UniProt Q13133); test: Agonist assay with nuclear receptor-GST fusion protein, LXR-α; details: FIG. 9
# T2 construct: made in house
# T2 sequence (Q13133 209-447 limits assumed): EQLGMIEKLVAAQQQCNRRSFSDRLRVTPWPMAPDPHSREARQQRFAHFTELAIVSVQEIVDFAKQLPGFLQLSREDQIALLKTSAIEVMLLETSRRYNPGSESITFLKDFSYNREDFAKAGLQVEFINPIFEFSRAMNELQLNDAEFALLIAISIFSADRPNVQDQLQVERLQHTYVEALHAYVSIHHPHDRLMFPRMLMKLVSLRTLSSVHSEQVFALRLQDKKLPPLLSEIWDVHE
# [3] = target: T3, human liver X receptor β-GST fusion protein (LXR-β) (Homo sapiens, UniProt P55055); test: Agonist assay with nuclear receptor-GST fusion protein, LXR-β; details: FIG. 9
# T3 construct: made in house
# T3 sequence (P55055 222-460 limits assumed): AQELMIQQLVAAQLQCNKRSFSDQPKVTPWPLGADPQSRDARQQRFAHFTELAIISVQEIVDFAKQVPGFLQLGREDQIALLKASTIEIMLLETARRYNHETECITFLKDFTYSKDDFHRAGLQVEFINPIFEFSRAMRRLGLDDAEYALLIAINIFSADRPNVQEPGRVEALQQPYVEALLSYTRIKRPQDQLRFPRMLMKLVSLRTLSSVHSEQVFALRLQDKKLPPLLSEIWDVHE
# [4] = target: T4, human estrogen receptor α-GST fusion protein (ER-α) (Homo sapiens, UniProt P03372); test: Assay of ligand using coactivator SRC1-bound plate, ER-α (present detection method); details: HRP-labeled anti-GST antibody, 450 nm, FIG. 6
# T4 construct: made in house; host or cells: Escherichia coli BL21
# T4 sequence (P03372 311-547 limits assumed): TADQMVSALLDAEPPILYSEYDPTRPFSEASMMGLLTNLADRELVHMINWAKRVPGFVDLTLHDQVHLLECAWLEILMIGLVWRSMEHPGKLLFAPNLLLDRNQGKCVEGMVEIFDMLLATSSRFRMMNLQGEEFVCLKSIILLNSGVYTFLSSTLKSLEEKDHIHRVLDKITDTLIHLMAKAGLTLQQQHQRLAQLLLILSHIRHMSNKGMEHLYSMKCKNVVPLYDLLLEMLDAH
# Method: In a manner similar to that of the aforementioned existing method, a purified ER-α product (10 mL) was prepared from an ER-α cell culture (1 L). By use of this product, the amount of an assay reagent prepared was examined as described hereinbelow. Avidin was immobilized on a plate in advance, and a biotinylated coactivator SRC1 (0.01 mg/mL, dissolved in DMSO) was prepared into a solution (final concentration: […]) by use of a washing buffer. The thus-prepared solution was dispensed into the plate (100 μL/well), followed by impregnation for one hour, to thereby prepare an SRC1-bound plate. […] After reaction with shaking for one hour, the plate was washed with a washing buffer, and an HRP-labeled anti-GST antibody solution prepared by diluting the antibody with a washing buffer by a factor of 1/40,000 was dispensed into the plate (100 μL/well), followed by reaction with shaking for one hour. After reaction, the plate was washed with a washing buffer; a color-developing reagent was added to the plate (100 μL/well); and the plate was allowed to stand still for 10 minutes for color development reaction. Color development reaction was stopped by use of 1 N sulfuric acid, followed by measurement at a wavelength of 450 nm by means of a plate reader.
# An HRP-labeled anti-GST antibody was employed for assay.
# T1 sequence (Q92731 264-498 limits assumed): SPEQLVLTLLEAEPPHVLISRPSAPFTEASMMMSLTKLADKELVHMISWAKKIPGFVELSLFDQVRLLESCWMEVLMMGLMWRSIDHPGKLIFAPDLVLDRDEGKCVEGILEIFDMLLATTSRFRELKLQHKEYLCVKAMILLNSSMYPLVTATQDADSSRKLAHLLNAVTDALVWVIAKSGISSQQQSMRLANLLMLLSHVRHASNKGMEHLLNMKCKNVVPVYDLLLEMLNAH
Compound,"OD (binding of receptor to immobilized coactivator), agonist mode [1]","OD, agonist dose dependence [2]","OD, agonist dose dependence [3]","OD (binding of receptor to immobilized coactivator), agonist mode [4]"
CC/C(=C(/CC)c1ccc(O)cc1)c1ccc(O)cc1 [diethylstilbestrol],increase in OD was observed,–,–,–
O=S(=O)(c1ccccc1)N(CC(F)(F)F)c1ccc(C(O)(C(F)(F)F)C(F)(F)F)cc1 [TO-901317],–,OD was increased in a manner dependent on the dose of the corresponding agonist,OD was increased in a manner dependent on the dose of the corresponding agonist,–
nonylphenol,increase in OD was observed,–,–,increase in OD was observed
CC(C)(c1ccc(O)cc1)c1ccc(O)cc1 [bisphenol A],increase in OD was observed,–,–,increase in OD was observed
